Results on one molecule are retold here after US8691757B2 (Bristol-Myers Squibb Company, priority 2011, dated 2014).

pEC50: −log10 of the molar value.

The test system of experiment [1] is HCV genotype 1a (H77 strain) replicon in HUH-7 cells. Description: HCV replicon luciferase reporter assay, genotype 1a. In kind it is cell-based. To be noted: Hepatitis C virus, 72 h, HCV genotype 1a replicon, 3 days incubation, Renilla luciferase, numeric values. In short, it runs like this: (§1)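 Stable HUH-7 replicon lines (1b Con1 with S1179I; 1a H77 with P1496L and S2204I) carrying Renilla luciferase were incubated 3 days at 37 °C with compound in 4% FCS, 0.5% DMSO. Luminescence was read after 2 h with 7.5 μM EnduRen, EC50 from four-parameter logistic fit; CC50 came from multiplexed Cell Titer-Blue (8 h).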

Experiment [2] relates to HCV genotype 1b (Con1) replicon in HUH-7 cells. The experiment is described as follows: HCV replicon luciferase reporter assay, genotype 1b. To be noted: Hepatitis C virus, 72 h, HCV genotype 1b replicon, 3 days incubation, Renilla luciferase, numeric values. The class given is cell-based. In short, it runs like this: as §1

Turning to `COc1cnc(O[C@@H]2C[C@H]3C(=O)N[C@]4(C(=O)NS(=O)(=O)C5(C)CC5)C[C@H]4/C=C\[C@H](C)CCC[C@@H](C)[C@H](NC(=O)OC(C)(C)C(F)(F)F)C(=O)N3C2)c2ccccc12` [Compound 35, 1,1,1-trifluoro-2-methylpropan-2-yl (2R,6S,7R,11R,13aS,14aR,16aS,Z)-2-(4-methoxyisoquinolin-1-yloxy)-7,11-dimethyl-14a-(1-methylcyclopropylsulfonylcarbamoyl)-5,16-dioxo-1,2,3,5,6,7,8,9,10,11,13a,14,14a,15,16,16a-hexadecahydrocyclopropa[e]pyrrolo[1,2-a][1,4]diazacyclopentadecin-6-ylcarbamate], the pEC50 in experiment [1] was 8.71; in experiment [2], 9.29.
